According to patent US20110135611A1 (priority 2009, published 2011):
Read-outs that look alike come from different tables or passages of the source.

Key:
[1] = system: NSC proliferation; test: Effect of GABAA receptor potentiator or antagonist treatment on NSC proliferation (BrdU+ cells in SGZ); assay type: in vivo, mice; details: 1 day after BrdU injection
Procedure: (§1) Female mice (3, 6-7, or 12-13 months of age) received two intraperitoneal injections of BrdU (Sigma, 100 mg/kg body weight) 6 h apart. One day, 3 days, and 4 and 10 weeks after the second injection, the brains were perfused with phosphate-buffered saline and collected.
To investigate the effect of GABAA receptor potentiator or antagonist treatment on NSC proliferation, female mice (6-7 months of age) were treated with once-daily intraperitoneal injections of pentobarbital (PB) (Sigma, 50 mg/kg; apoE4-KI mice) or picrotoxin (PTX) (Sigma, 4 mg/kg; apoE3-KI mice). Twenty-four hours after the last treatment, mice received two injections of BrdU (100 mg/kg) 6 h apart and were sacrificed 1 day later. […]
Mouse brains were fixed in 4% paraformaldehyde for 3 days, and coronal sections (40 μm) were cut continuously throughout the entire hippocampus with a vibratome. Single- or double-immunostained cells on both sides of the hippocampus of all stained sections were counted and calculated. Numbers of newborn cells (BrdU^+) and immature neurons (BrdU^+ and Dcx^+) in the SGZ were determined 1 or 3 days after BrdU injection; numbers of surviving newborn cells (BrdU^+) and mature neurons (BrdU^+ and NeuN^+) in the SGZ were determined 4 or 10 weeks after injection. Newborn neurons that had migrated from the SVZ to the OB were quantified 4 weeks after BrdU injection as reported (Galvão et al., 2008). […]

[2] = system: neuronal maturation; test: Effect of GABAA receptor potentiator or antagonist treatment on neuronal maturation (SGZ, 4 weeks after BrdU); assay type: in vivo, mice
Procedure: as §1
To investigate the effect of GABAA receptor potentiator or antagonist treatment on NSC proliferation, female mice (6-7 months of age) were treated with once-daily intraperitoneal injections of pentobarbital (PB) (Sigma, 50 mg/kg; apoE4-KI mice) or picrotoxin (PTX) (Sigma, 4 mg/kg; apoE3-KI mice). Twenty-four hours after the last treatment, mice received two injections of BrdU (100 mg/kg) 6 h apart and were sacrificed 1 day later. To investigate the effect of GABAA receptor potentiator or antagonist treatment on neuronal maturation, female mice (6-7 months of age) received two injections of BrdU 6 h apart. Twenty-four hours later, apoE3-KI mice received daily injections of PTX for 7 consecutive days, and apoE4-KI mice received daily injections of PB for 28 consecutive days. Mice were sacrificed 4 weeks after the second BrdU injection.
Mouse brains were fixed in 4% paraformaldehyde for 3 days, and coronal sections (40 μm) were cut continuously throughout the entire hippocampus with a vibratome. Every eighth section was immunostained with various primary and secondary antibodies and examined with a laser-scanning confocal system.
Immunostaining was carried out with anti-BrdU (mouse monoclonal, Chemicon, 1:400; or rat monoclonal, Abcam, 1:400) and/or with antibodies against other cellular markers, including mouse anti-NeuN (Chemicon, 1:400), mouse anti-nestin (Chemicon, 1:50), goat anti-Dcx (Santa Cruz Biotechnology, 1:40), goat anti-Sox2 (Santa Cruz Biotechnology, 1:350), rabbit anti-GFAP (Invitrogen, 1:400), mouse anti-β-III-tubulin (Promega, 1:800), mouse anti-S100β (Abcam, 1:400), and rat anti-Noggin (R&D Systems, 1:200). Corresponding secondary antibodies (Texas Red and fluorescein, 1:250, Vector Laboratories) were used. For Ki67, somatostatin, and GAD67 immunostaining, rabbit anti-Ki67 (Bethyl Labs, 1:1000), rat anti-somatostatin (Chemicon, 1:100), and mouse anti-GAD67 (Chemicon, 1:1500) were used with biotinylated goat anti-rabbit IgG (1:250), rabbit anti-rat IgG (1:250), and rabbit anti-mouse IgG (1:250) as secondary antibodies and diaminobenzadine as a chromagen (Dako).
Mouse brains were fixed in 4% paraformaldehyde for 3 days, and coronal sections (40 μm) were cut continuously throughout the entire hippocampus with a vibratome. Single- or double-immunostained cells on both sides of the hippocampus of all stained sections were counted and calculated. Numbers of newborn cells (BrdU^+) and immature neurons (BrdU^+ and Dcx^+) in the SGZ were determined 1 or 3 days after BrdU injection; numbers of surviving newborn cells (BrdU^+) and mature neurons (BrdU^+ and NeuN^+) in the SGZ were determined 4 or 10 weeks after injection. Newborn neurons that had migrated from the SVZ to the OB were quantified 4 weeks after BrdU injection as reported (Galvão et al., 2008). The number of GABAergic interneurons in the hilus of the dentate gyrus was determined by counting GAD67- and somatostatin-positive cells.

[3] = system: GABAA receptors; assay type: cell-based, mice; details: for GABAergic miniature SSCs (mSSCs): BMI 100 μM, in presence of DNQX, D-AP5 and TTX, apoE3-KI and apoE4-KI mice
Description: ApoE3-KI and apoE4-KI mice (2-3 months) were sacrificed 2 weeks after retrovirus-GFP injection and processed for slice preparation as described (Duan et al., 2007; Ge et al., 2006a). Whole-cell voltage-clamp recordings from visually identified GFP^+ neurons (2 weeks after injection) were obtained with an infrared differential interference contrast video microscopy system.
Next the level of GABAergic synaptic innervation, which is critical for neuronal development of newborn hippocampal cells (Ge et al., 2006a; Ge et al., 2006b; Liu et al., 2006; Tozuka et al., 2005), was assessed. GABAergic miniature SSCs (mSSCs) were recorded from GFP^+ neurons (resting membrane potential Vm=−65 mV) 2 weeks after injection of the retrovirus-GFP construct. These studies were conducted in the presence of 6,7-dinitroquinoxaline-2,3-dione (DNQX) (20 μM) and D-(−)-2-amino-5-phosphonovaleric acid (D-AP5) (50 μM) to block glutamate-mediated currents and tetrodotoxin (TTX) (1 μM) to block action potential-mediated GABA release.
In the presence of DNQX and D-AP5, GABA-evoked postsynaptic currents (ePSCs) recorded from GFP^+ neurons were generated by electrical stimulation of GABAergic axons in the molecular layer of the dentate gyrus. This indicates a functional coupling between hilar GABAergic interneurons and newborn neurons in both apoE3-KI and apoE4-KI mice. However, the ePSC peak amplitude was ˜40% lower in apoE4-KI mice (FIGS. 6C, 6D, and 6F). This finding is consistent with a reduction of presynaptic GABAergic inputs onto newborn neurons available for electrical activation in apoE4-KI mice. […] This finding reconfirms the intact GABAA receptor function in newborn neurons of apoE4-KI mice.

[4] = system: dendritic development of newborn neurons; test: Dendritic development of retrovirus-GFP labelled newborn hippocampal neurons; assay type: in vivo, mice
[5] = system: NSCs from apoE-KO mice; test: NSC culture and neural differentiation in vitro; assay type: cell-based; details: neuronal differentiation conditions, Noggin 500 ng/ml
Procedure: NSCs were isolated from brains of apoE3-KI, apoE4-KI, wildtype, and apoE-KO mice at postnatal day 1 (P1) using a modified neurosphere method (Brewer and Torricelli, 2007; Ray and Gage, 2006). The expression of apoE and Noggin in NSCs with different apoE genotypes was assessed by anti-apoE and anti-Noggin (R&D Systems) western blots of cell lysates. Neural differentiation of the established NSCs with different apoE genotypes was induced in vitro as reported (Song et al., 2002). In some experiments, recombinant mouse Noggin (R&D Systems) was added at 500 ng/ml into the medium during neural differentiation. Neuronal and astrocytic differentiation of NSCs at 7 days was determined and quantified.

[6] = apoE3-KI mice, daily PTX for 7 days, 4 weeks after BrdU injection
[7] = apoE4-KI mice, daily PB for 4 weeks

With picrotoxin the “number of newborn cells (BrdU+) in the SGZ” value ([1]; apoE3-KI mice, PTX 4 mg/kg i.p. once daily for 3 days) was “increased the number of newborn cells 1 day after BrdU injection to a level similar to that in untreated apoE4-KI mice”, the “number of immature neurons” value [2, 6] was “the number of immature neurons was increased” and the “number of mature neurons” value [2, 6] was “the number of mature neurons was decreased”. The “survival of newborn cells” value [2, 6] was “the survival of newborn cells was unaltered”.

With `C[N+]1(C)CCc2cc3c(cc2[C@H]1[C@@H]1OC(=O)c2c1ccc1c2OCO1)OCO3.[I-]` [Bicuculline methoiodide] the “ePSCs (evoked postsynaptic currents)” value ([3]; BMI 100 μM bath application, in presence of DNQX and D-AP5) was “Currents were blocked”, the “GABAergic miniature SSCs (mSSCs)” value [3] was “abolished the mSSCs” and the “GABAergic miniature SSCs (mSSCs)” value ([3]; listed as BMI) was “The mSSCs were blocked”.

For `NCCCC(=O)O` [GABA, gamma-aminobutyric acid], the “current amplitudes evoked by focal application” value ([3]; exogenous GABA 500 μM, GFP+ neurons from apoE3-KI vs apoE4-KI mice) was “evoked similar current amplitudes in GFP^+ neurons from apoE3-KI and apoE4-KI mice”.

For `CCCC(C)C1(CC)C(=O)NC(=O)NC1=O` (stereo not drawn) [pentobarbital], the “number of newborn cells (BrdU+) in the SGZ” value ([1]; apoE4-KI mice, PB 50 mg/kg i.p. once daily) was “decreased the number of newborn cells to levels similar to those of wildtype and untreated apoE3-KI mice”, the “number of immature neurons” value [2, 7] was “decreased the number of immature neurons” and the “number of mature neurons” value [2, 7] was “increased the number of mature neurons”. For the same molecule, the “length of dendritic branches of newborn neurons” value ([4]; apoE3-KI mice treated with PB) was “did not alter the length or number of dendritic branches”, the “number of dendritic branches of newborn neurons” value ([4]; apoE3-KI mice treated with PB) was “did not alter the length or number of dendritic branches” and the “dendritic branch number of newborn neurons” value ([4]; apoE4-KI mice treated with PB) was “increases in both dendritic length and branch number to levels similar to those in wildtype and apoE3-KI mice”. For the same molecule, the “dendritic length of newborn neurons” value ([4]; apoE4-KI mice treated with PB) was “increases in both dendritic length and branch number to levels similar to those in wildtype and apoE3-KI mice” and the “number of dendritic branches of newborn neurons” value ([4]; wildtype mice treated with PB) was “trend toward significant increase (p=0.053)”.

B1: recombinant mouse Noggin: recombinant mouse Noggin (R&D Systems), bone-morphogenetic protein (BMP) inhibitor (protein, UniProt P97466 28-232, looked up)
Noggin: QHYLHIRPAPSDNLPLVDLIEHPDPIFDPKEKDLNETLLRSLLGGHYDPGFMATSPPEDRPGGGGGPAGGAEDLAELDQLLRQRPSGAMPSEIKGLEFSEGLAQGKKQRLSKKLRRKLQMWLWSQTFCPVLYAWNDLGSRFWPRYVKVGSCFSKRSCSVPEGMVCKPSKSVHLTVLRWRCQRRGGQRCGWIPIQYPIISECKCSC
With B1 the astrogenesis [5] was “inhibited astrogenesis” and the neurogenesis [5] was “stimulated neurogenesis to levels similar to those of NSCs from wildtype mice”.
